In ChEMBL document CHEMBL1148480, “Structure-activity studies of orexin a and orexin B at the human orexin 1 and orexin 2 receptors led to orexin 2 receptor selective and orexin 1 receptor preferring ligands” (J Med Chem, 2004):
Residues, ends and D or L forms follow the SMILES beside them.

Target: T1, Orexin receptor type 2 (Homo sapiens, UniProt O43614)
T1 sequence (O43614 whole entry): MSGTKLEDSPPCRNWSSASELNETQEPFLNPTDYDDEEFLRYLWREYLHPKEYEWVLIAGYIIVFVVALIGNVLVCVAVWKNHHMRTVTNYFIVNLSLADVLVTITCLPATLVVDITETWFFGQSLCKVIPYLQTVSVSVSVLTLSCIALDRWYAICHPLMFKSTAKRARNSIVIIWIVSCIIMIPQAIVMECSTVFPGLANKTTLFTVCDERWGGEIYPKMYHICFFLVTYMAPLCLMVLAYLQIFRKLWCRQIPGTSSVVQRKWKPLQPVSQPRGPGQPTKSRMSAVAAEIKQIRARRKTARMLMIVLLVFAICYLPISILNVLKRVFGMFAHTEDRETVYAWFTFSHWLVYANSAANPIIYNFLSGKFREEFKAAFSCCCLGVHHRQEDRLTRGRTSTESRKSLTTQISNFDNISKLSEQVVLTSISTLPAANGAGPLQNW
Test: Effective agonist concentration to the human Orexin receptor type 2 was determined using the Xlfit program
Assay type: functional

Row | SMILES | EC50
1 | CC[C@H](C)[C@H](NC(=O)[C@H](Cc1cnc[nH]1)NC(=O)[C@H](CC(N)=O)NC(=O)CNC(=O)[C@H](CO)NC(=O)[C@H](C)NC(=O)[C@H](CCC(N)=O)NC(=O)[C@H](CC(C)C)NC(=O)[C@H](CC(C)C)NC(=O)[C@H](CCCNC(=N)N)NC(=O)[C@H](CCC(N)=O)NC(=O)[C@H](CC(C)C)NC(=O)[C@H](CCCNC(=N)N)NC(=O)CNC(=O)[C@H](CCC(N)=O)NC(=O)[C@H](CC(C)C)NC(=O)CN)C(=O)N[C@@H](C)C(=O)NCC(=O)N[C@@H](C)C(=O)N[C@@H](CC(C)C)C(=O)N[C@H](C(=O)N[C@@H](CCSC)C(=O)O)[C@@H](C)O | 3.15 µM
2 | CC[C@H](C)[C@H](NC(=O)CNC(=O)[C@H](C)NC(=O)[C@H](C)NC(=O)[C@H](Cc1cnc[nH]1)NC(=O)[C@H](CC(N)=O)NC(=O)CNC(=O)[C@H](CO)NC(=O)[C@H](C)NC(=O)[C@H](CCC(N)=O)NC(=O)[C@H](CC(C)C)NC(=O)[C@H](CC(C)C)NC(=O)[C@H](CCCNC(=N)N)NC(=O)[C@H](CCC(N)=O)NC(=O)[C@H](CC(C)C)NC(=O)[C@H](CCCNC(=N)N)NC(=O)CNC(=O)[C@H](C)NC(=O)[C@H](CC(C)C)NC(=O)CN)C(=O)N[C@@H](CC(C)C)C(=O)N[C@H](C(=O)N[C@@H](CCSC)C(=O)O)[C@@H](C)O (H-GLAGRLQRLLQASGNHAAGILTM-OH) | 0.24 µM
3 | CC[C@H](C)[C@H](NC(=O)CNC(=O)[C@H](C)NC(=O)[C@H](C)NC(=O)[C@H](Cc1cnc[nH]1)NC(=O)[C@H](CC(N)=O)NC(=O)CNC(=O)[C@H](CO)NC(=O)[C@H](C)NC(=O)[C@H](CCC(N)=O)NC(=O)[C@H](CC(C)C)NC(=O)[C@H](CC(C)C)NC(=O)[C@@H]1CCCN1C(=O)[C@H](CCC(N)=O)NC(=O)[C@H](CC(C)C)NC(=O)[C@H](CCCNC(=N)N)NC(=O)CNC(=O)[C@H](CCC(N)=O)NC(=O)[C@H](CC(C)C)NC(=O)CN)C(=O)N[C@@H](CC(C)C)C(=O)N[C@H](C(=O)N[C@@H](CCSC)C(=O)O)[C@@H](C)O (H-GLQGRLQPLLQASGNHAAGILTM-OH) | 0.68 µM
4 | CC[C@H](C)[C@H](NC(=O)CNC(=O)[C@H](C)NC(=O)[C@H](C)NC(=O)[C@H](Cc1cnc[nH]1)NC(=O)[C@H](CC(N)=O)NC(=O)CNC(=O)[C@H](CO)NC(=O)[C@H](C)NC(=O)[C@H](CCC(N)=O)NC(=O)[C@H](CC(C)C)NC(=O)[C@H](CC(C)C)NC(=O)[C@H](CCCNC(=N)N)NC(=O)[C@H](CCC(N)=O)NC(=O)[C@@H]1CCCN1C(=O)[C@H](CCCNC(=N)N)NC(=O)CNC(=O)[C@H](CCC(N)=O)NC(=O)[C@H](CC(C)C)NC(=O)CN)C(=O)N[C@@H](CC(C)C)C(=O)N[C@H](C(=O)N[C@@H](CCSC)C(=O)O)[C@@H](C)O (H-GLQGRPQRLLQASGNHAAGILTM-OH) | 0.79 µM
5 | CC[C@H](C)[C@H](NC(=O)CNC(=O)[C@H](C)NC(=O)[C@H](C)NC(=O)[C@H](Cc1c[nH]cn1)NC(=O)[C@H](CC(N)=O)NC(=O)CN)C(=O)N[C@@H](CC(C)C)C(=O)N[C@H](C(=O)N[C@@H](CC(C)C)C(=O)O)[C@@H](C)O (H-GNHAAGILTL-OH) | > 1000 µM
6 | CC[C@H](C)[C@H](NC(=O)CNC(=O)[C@H](C)NC(=O)[C@H](C)NC(=O)[C@H](Cc1cnc[nH]1)NC(=O)[C@H](CC(N)=O)NC(=O)CNC(=O)[C@H](CO)NC(=O)[C@H](C)NC(=O)[C@H](CCC(N)=O)NC(=O)[C@H](CC(C)C)NC(=O)[C@H](CC(C)C)NC(=O)[C@H](CCCNC(=N)N)NC(=O)[C@H](CCC(N)=O)NC(=O)[C@H](CC(C)C)NC(=O)[C@H](CCCNC(=N)N)NC(=O)CNC(=O)[C@H](CCC(N)=O)NC(=O)[C@@H]1CCCN1C(=O)CN)C(=O)N[C@@H](CC(C)C)C(=O)N[C@H](C(=O)N[C@@H](CCSC)C(=O)O)[C@@H](C)O (H-GPQGRLQRLLQASGNHAAGILTM-OH) | 0.06 µM
7 | CC[C@H](C)[C@H](NC(=O)CNC(=O)[C@H](C)NC(=O)[C@H](C)NC(=O)[C@@H](N)Cc1cnc[nH]1)C(=O)N[C@@H](CC(C)C)C(=O)N[C@H](C(=O)N[C@@H](CC(C)C)C(=O)O)[C@@H](C)O (H-HAAGILTL-OH) | > 1000 µM
